A short description of series [1]: Plasma PK of d-MPH after single oral dose administrations of 240, 360 and 480 mg SDX Cl.
The subject of the next series is Patients with IH. As to conditions: cited from earlier work.

Consider two compounds from patent publication US20250375436A1, “SERDEXMETHYLPHENIDATE FOR TREATMENT OF IDIOPATHIC HYPERSOMNIA” (ZEVRA THERAPEUTICS, INC., priority 2024, published 2025).

One may read the CL/F as clearance divided by bioavailability, as obtained after extravascular dosing. As to `COC(=O)[C@H](c1ccccc1)[C@H]1CCCCN1C(=O)OC[n+]1cccc(C(=O)N[C@@H](CO)C(=O)O)c1.[Cl-]` [SDX Cl, 3-[[[(1S)-1-carboxy-2-hydroxyethyl]amino]carbonyl]-1-[[[[(2R)-2-[(1R)-2-methoxy-2-oxo-1-phenylethyl]-1-piperidinyl]carbonyl]oxy]methyl]pyridinium chloride], the CL/F in series [1] (single oral dose 240 mg SDX Cl, N = 14) stood at 384 L/h; in series [1] (single oral dose 360 mg SDX Cl, N = 10), 387 L/h; in series [1] (single oral dose 480 mg SDX Cl, N = 7), 297 L/h.

Take `O=C(O)CCCO` [oxybate]: in the series on Patients with IH (in vivo), the TEAE anxiety was 11%, the TEAE dizziness is recorded as 12%, the TEAE headache is given as 18% and the TEAE nausea is given as 22 % of subjects. The TEAE vomiting in the series with Patients with IH (in vivo) is given as 11%. The “Patients reporting worsening symptoms (PGI-C scale)” value in the series on Patients with IH (oxybate-treated patients) was 21%.
